According to publication PMC8015229, “Focus on Human Monoamine Transporter Selectivity. New Human DAT and NET Models, Experimental Validation, and SERT Affinity Exploration” (ACS Chemical Neuroscience, 2020):
Read-outs that look alike come from different tables or passages of the source.

Tests used:
SERT [1] = target: T1, SERT (Oryctolagus cuniculus, UniProt A0A5F9CLU6); conditions: rabbit cortical membranes; tested as hydrochloride salts; cited from earlier work
SERT [2] = target: T2, SERT (Homo sapiens, UniProt P31645); test: [3H]5-HT uptake to human platelets
T2 sequence (P31645 whole entry): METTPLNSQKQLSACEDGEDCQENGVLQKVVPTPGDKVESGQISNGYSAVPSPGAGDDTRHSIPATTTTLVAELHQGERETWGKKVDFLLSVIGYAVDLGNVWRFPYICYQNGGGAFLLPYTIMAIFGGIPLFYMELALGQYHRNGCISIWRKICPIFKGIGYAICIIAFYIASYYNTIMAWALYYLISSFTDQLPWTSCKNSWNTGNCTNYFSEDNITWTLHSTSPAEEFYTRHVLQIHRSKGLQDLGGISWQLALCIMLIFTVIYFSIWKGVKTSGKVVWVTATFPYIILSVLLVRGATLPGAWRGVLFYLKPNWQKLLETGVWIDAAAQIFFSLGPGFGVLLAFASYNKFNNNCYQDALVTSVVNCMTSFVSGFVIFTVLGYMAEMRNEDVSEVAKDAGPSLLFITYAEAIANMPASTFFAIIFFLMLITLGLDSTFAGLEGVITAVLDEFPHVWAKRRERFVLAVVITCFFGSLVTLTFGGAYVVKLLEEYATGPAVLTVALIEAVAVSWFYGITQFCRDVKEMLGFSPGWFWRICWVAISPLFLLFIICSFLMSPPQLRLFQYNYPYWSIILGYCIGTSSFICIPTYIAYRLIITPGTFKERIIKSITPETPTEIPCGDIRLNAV

DAT [3] = target: T3, DAT (Oryctolagus cuniculus, UniProt Z9V7K4Q734); conditions: rabbit striatal membranes; tested as hydrochloride salts; read-out: [3H]-WIN 35,428, Ki; cited from earlier work
T3 sequence (Z9V7K4Q734 1-627): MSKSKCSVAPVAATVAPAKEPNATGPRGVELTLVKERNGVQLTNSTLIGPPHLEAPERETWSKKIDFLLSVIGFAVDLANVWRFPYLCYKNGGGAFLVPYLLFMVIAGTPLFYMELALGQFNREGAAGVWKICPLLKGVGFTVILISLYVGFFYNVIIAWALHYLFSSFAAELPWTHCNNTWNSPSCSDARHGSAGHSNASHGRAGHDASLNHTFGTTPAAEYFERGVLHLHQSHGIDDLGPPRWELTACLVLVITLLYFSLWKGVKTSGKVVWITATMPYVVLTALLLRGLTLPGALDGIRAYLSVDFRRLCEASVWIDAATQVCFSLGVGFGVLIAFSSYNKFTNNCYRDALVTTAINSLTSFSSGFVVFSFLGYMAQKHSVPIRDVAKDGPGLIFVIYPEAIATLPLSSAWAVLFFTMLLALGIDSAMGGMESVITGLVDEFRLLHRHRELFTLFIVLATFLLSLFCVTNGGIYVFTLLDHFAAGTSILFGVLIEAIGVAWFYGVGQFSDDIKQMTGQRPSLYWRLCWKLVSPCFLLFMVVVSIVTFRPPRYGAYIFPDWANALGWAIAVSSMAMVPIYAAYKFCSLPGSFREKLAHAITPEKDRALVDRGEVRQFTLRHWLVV

SERT [4] = target: T2, SERT; test: [3H]paroxetine binding assay to human platelet membranes
SERT [5] = target: T1, SERT; test: [3H]paroxetine binding assay to rabbit cortical membranes
Description: (§1) Membranes used in DAT and SERT binding assays were prepared from frozen rabbit striatum and frontal cortex as previously described.[29]

NET [6] = target: T4, NET (Oryctolagus cuniculus, UniProt G1TDF9); test: [3H]nisoxetine binding assay to rabbit cortical membranes
T4 construct: tissue Charles River Laboratories, Inc. (animals); host or cells: cerebral cortex of New Zealand White rabbit
T4 sequence (G1TDF9 1-617): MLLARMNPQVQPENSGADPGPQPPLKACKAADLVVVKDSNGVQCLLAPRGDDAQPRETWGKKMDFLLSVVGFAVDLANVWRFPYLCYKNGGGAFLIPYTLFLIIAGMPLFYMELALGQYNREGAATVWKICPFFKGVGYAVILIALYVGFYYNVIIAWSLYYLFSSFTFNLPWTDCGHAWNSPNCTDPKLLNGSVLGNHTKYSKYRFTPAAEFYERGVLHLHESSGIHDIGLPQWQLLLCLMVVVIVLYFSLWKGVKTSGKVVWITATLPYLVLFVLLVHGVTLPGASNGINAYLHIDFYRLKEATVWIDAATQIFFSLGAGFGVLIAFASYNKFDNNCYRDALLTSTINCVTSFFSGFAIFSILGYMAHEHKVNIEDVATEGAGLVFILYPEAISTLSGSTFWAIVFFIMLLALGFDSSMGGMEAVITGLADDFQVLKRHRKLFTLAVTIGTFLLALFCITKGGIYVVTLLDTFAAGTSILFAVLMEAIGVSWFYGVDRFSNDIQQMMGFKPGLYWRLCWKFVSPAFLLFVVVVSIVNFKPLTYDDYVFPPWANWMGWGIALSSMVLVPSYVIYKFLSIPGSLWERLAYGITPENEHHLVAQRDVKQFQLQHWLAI
Description: This washing procedure was repeated twice. The resulting pellet was immediately used in the binding assay or frozen at −80 °C until the time of the assay.
Incubation was carried out at 4 °C for 4 h.

DAT [7] = target: T3, DAT; test: [3H]WIN 35,428 binding assay to rabbit striatal membranes; conditions: mean ± SE of three or more experiments, tested as hydrochloride salts
Description: as §1
DAT binding assays were performed using 2 nM [^3H]WIN 35,428 (specificity activity, 84.5 Ci mmol^–1; PerkinElmer Life Science) as previously described by Nencetti et al.[29]

NET [8] = conditions: binding affinity for rat transporter; cited from earlier work
NET [9] = conditions: cited from earlier work
SERT [10] = target: T2, SERT; conditions: cited from earlier work
DAT [11] = conditions: binding affinity for human transporters; cited from earlier work
SERT [12] = conditions: binding affinity for rat transporter; cited from earlier work
NET [13] = target: T4, NET; conditions: read-out: [3H]nisoxetine, Ki; rabbit cortical membranes; cited from earlier work
[14] = rabbit cortical membranes, tested as hydrochloride salts
[15] = binding affinity for human transporters

T1 sequence (A0A5F9CLU6 1-628): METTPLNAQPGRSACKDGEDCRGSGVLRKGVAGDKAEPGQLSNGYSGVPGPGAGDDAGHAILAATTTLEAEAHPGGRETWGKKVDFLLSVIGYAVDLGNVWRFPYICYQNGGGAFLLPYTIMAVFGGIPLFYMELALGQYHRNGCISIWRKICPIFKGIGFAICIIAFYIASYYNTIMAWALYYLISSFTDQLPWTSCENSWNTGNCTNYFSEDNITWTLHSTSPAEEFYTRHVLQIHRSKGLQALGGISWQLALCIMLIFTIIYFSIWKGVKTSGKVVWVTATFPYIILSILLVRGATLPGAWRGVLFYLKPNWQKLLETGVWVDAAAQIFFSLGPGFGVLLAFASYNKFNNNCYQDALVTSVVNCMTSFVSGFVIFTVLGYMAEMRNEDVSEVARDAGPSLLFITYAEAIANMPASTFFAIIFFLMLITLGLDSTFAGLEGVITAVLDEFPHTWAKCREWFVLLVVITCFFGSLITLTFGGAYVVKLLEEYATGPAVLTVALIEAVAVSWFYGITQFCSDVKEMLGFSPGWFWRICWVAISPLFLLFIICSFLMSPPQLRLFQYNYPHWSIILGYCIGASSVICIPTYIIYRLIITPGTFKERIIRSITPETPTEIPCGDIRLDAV

Cl.Fc1ccc(C2(OCc3ccc(C(F)(F)F)cc3)CCNCC2)cc1 [compound 20b, 4-(4-Fluorophenyl)-4-((4-(trifluoromethyl)benzyl)oxy)piperidine Hydrochloride]
[3H]paroxetine, Ki (SERT [1]): picomolar range | IC50 (SERT [2]): 0.13 ± 0.01 nM | Ki (SERT [2]): 0.08 nM | type of inhibition of [3H]5-HT uptake (SERT [2]; human platelets, Lineweaver-Burk plot, Vmax unchanged, Km changed): competitive | melting point: 184 to 185 °C | Ki (DAT [3]): > 100000 nM | Ki (SERT [4]): 0.17 ± 0.02 nM | potency as inhibitor of [3H]paroxetine binding relative to unlabeled paroxetine (SERT [5]): ~10 fold | Ki (NET [6]; [14]): 10000 nM

Cl.Fc1ccc(C2(OCc3ccccc3F)CCNCC2)cc1 [20c, 4-((2-Fluorobenzyl)oxy)-4-(4-fluorophenyl)piperidine Hydrochloride]
melting point: 202 °C | Ki (DAT [7]): > 100000 nM | Ki (NET [6]; [14]): 400 nM

CNCCC(Oc1ccccc1OC)c1ccccc1 (stereo not drawn) [compound 8, nisoxetine]
NET pKi exp (NET [8]): 9.34

Cl.Fc1ccccc1COC1(c2ccc(C(F)(F)F)cc2)CCNCC1 [21c, 4-((2-Fluorobenzyl)oxy)-4-(4-(trifluoromethyl)phenyl)piperidine Hydrochloride]
melting point: 210 °C (dec.) | Ki (DAT [7]): 11100 nM | Ki (NET [6]; [14]): 2070 nM

Cl.FC(F)(F)c1ccc(C2(OCc3ccc4c(c3)OCO4)CCNCC2)cc1 [21d, 4-(Benzo[d][1,3]dioxol-5-ylmethoxy)-4-(4-(trifluoromethyl)phenyl)piperidine Hydrochloride]
[3H]paroxetine, Ki (SERT [1]): picomolar range | IC50 (SERT [2]): 4.9 ± 0.5 nM | Ki (SERT [2]): 3.26 nM | Ki (DAT [3]): 11200 nM | Ki (SERT [4]): 8.72 ± 0.93 nM | Ki (NET [6]; [14]): 2450 nM

c1ccc(CCCN2CCN(CCOC(c3ccccc3)c3ccccc3)CC2)cc1 [compound 13, GBR-12935]
NET pKi exp (NET [9]; [15]): 6.2

Cl.Fc1ccc(COC2(c3ccc(F)cc3)CCNCC2)cc1 [20a, 4-((4-Fluorobenzyl)oxy)-4-(4-fluorophenyl)piperidine Hydrochloride]
melting point: 158 to 159 °C | Ki (DAT [7]): > 100000 nM | Ki (NET [6]; [14]): 520 nM

Cl.Fc1ccc(COC2(c3ccc(C(F)(F)F)cc3)CCNCC2)cc1 [21a, 4-((4-Fluorobenzyl)oxy)-4-(4-(trifluoromethyl)phenyl)piperidine Hydrochloride]
melting point: 261 °C (dec.) | Ki (DAT [7]): > 100000 nM | Ki (NET [6]): > 10000 nM

c1ccc2c(CCC3CCNCC3)c[nH]c2c1 [compound 14, indalpine]
NET pKi exp (NET [9]; [15]): 6.29 | SERT pKi exp (SERT [10]; [15]): 8.76 | DAT pKi exp (DAT [11]): 6

Cl.Fc1ccc(C2(OCc3ccc4c(c3)OCO4)CCNCC2)cc1 [20d, 4-(Benzo[D][1,3]dioxol-5-ylmethoxy)-4-(4-fluorophenyl)piperidine Hydrochloride]
[3H]paroxetine, Ki (SERT [1]): picomolar range | IC50 (SERT [2]): 2.64 ± 0.3 nM | Ki (SERT [2]): 1.75 nM | Ki (DAT [3]): > 100000 nM | Ki (SERT [4]): 1.71 ± 0.15 nM | potency as inhibitor of [3H]paroxetine binding relative to unlabeled paroxetine (SERT [5]): ~10 fold | Ki (NET [6]; [14]): 1740 nM

COc1ccc(OC[C@H]2CN(C)CC[C@@H]2c2ccccc2)cc1 [compound 4, femoxetine]
NET pKi exp (NET [9]; [15]): 6.12 | DAT pKi exp (DAT [11]): 5.7

COC(=O)[C@H]1[C@@H](c2ccc(Cl)cc2)C[C@@H]2CC[C@H]1N2C [compound 9, RTI-31]
NET pKi exp (NET [9]): 7.4 | DAT pKi exp (DAT [11]): 8.57

CN1[C@H]2CC[C@@H]1[C@@H](C(=O)N1CCCC1)[C@@H](c1ccc(I)cc1)C2 [compound 17, RTI-229]
NET pKi exp (NET [9]; [15]): 6.22 | SERT pKi exp (SERT [10]): 6.8

CNCC[C@@H](Oc1ccccc1C)c1ccccc1 [compound 6, atomoxetine]
DAT pKi exp (DAT [11]): 5.8

CN(C)C/C=C(/c1ccc(Br)cc1)c1cccnc1 [compound 18, zimelidine]
DAT pKi exp (DAT [11]): 4.93

CN1C2CCC1C(C(=O)Oc1ccccc1)C(c1ccc(Cl)cc1)C2 (stereo not drawn) [compound 19, RTI-113]
SERT pKi exp (SERT [12]): 6.67 | NET pKi exp (NET [8]): 5.75

CCOc1ccccc1OCC1CNCCO1 (stereo not drawn) [compound 16, viloxazine]
NET pKi exp (NET [9]): 6.81 | DAT pKi exp (DAT [11]): 5

Cl.FC(F)(F)c1ccc(COC2(c3ccc(C(F)(F)F)cc3)CCNCC2)cc1 [21b, 4-((4-(Trifluoromethyl)benzyl)oxy)-4-(4-(trifluoromethyl)phenyl)piperidine Hydrochloride]
[3H]paroxetine, Ki (SERT [1]): picomolar range | IC50 (SERT [2]): 4.2 ± 0.4 nM | Ki (SERT [2]): 2.77 nM | melting point: 189 to 190 °C | Ki (DAT [3]): > 100000 nM | Ki (SERT [4]): 5.6 ± 0.52 nM | Ki (NET [6]; [14]): > 10000 nM

COC(=O)[C@H]1[C@@H](c2ccc(I)cc2)C[C@@H]2CC[C@H]1N2C [compound 10, RTI-55]
NET pKi exp (NET [9]): 7.7 | SERT pKi exp (SERT [10]): 8.4 | DAT pKi exp (DAT [11]): 8.41

Fc1ccc([C@@H]2CCNC[C@H]2COc2ccc3c(c2)OCO3)cc1 [compound 1, paroxetine]
Ki (NET [13]): 80 ± 1 nM

COCCCC/C(=N\OCCN)c1ccc(C(F)(F)F)cc1 [compound 11, fluvoxamine]
DAT pKi exp (DAT [11]): 5.03
